Experimental data reported in US12213984B2, “Immunoregulatory agent” (KYUSHU UNIVERSITY, NATIONAL UNIVERSITY CORPORATION, priority 2015, dated 2025).

What was measured:
[1] = target: T1, Trio (Homo sapiens, UniProt O75962); assay: in-vitro GEF assay, Rac activation by Trio (Experimental Example 1); assay type: biochemical
T1 construct: a DH-PH domain of the Trio protein and the Tiam protein; Histidine-SUMO (N); made in house; host or cells: E. coli Arctic express DE3 (pET28a)
Description: (§1) The selectivity of the effect of inhibiting the GEF of DOCK2 by cholesterol 3-sulfate was examined. All of DOCK2, Trio, and Tiam are GEFs activating Rac. In the presence of serially diluted cholesterol 3-sulfate, the Rac activation ability of a DOCK2 protein, a Trio protein, and a Tiam protein was measured by in-vitro GEF assay. For the in-vitro GEF assay, a labeled GTP (trade name, “Bodipy-FL-GTP”, manufactured by Invitrogen) was used, because it has a property of increasing fluorescence intensity when binds to Rac by the action of GEF. […]
(§2) During the reaction, the change in the fluorescence intensity of Bodipy-FL-GPT was monitored using a spectrofluorometer Enspire manufactured by PerkinElmer Inc (excitation wavelength: 488 nm, emission wavelength: 514 nm). By calculation, the values obtained by the measurement were corrected such that the fluorescence intensity became 0 at a reaction starting point (0 second).
(§3) Then, by using software (trade name “GraphPad Prism 5”, manufactured by GraphPad Software Inc.), an approximation curve was created which is obtained in a case where the calculated corrected values are plotted on the y-axis and time (t) is plotted on the x-axis. […]

[2] = target: T2, protein composed of the lobe B and the lobe C of the DHR-2 domain of DOCK2 (Homo sapiens, UniProt Q92608); assay: ELISA binding of steroid compounds to DHR-2 domain of DOCK2; details: steroid immobilized at 100 μg/ml, protein 2 μg/mL
T2 construct: the HIS-SUMO tagged protein composed of the lobe B and the lobe C of the DHR-2 domain of DOCK2; made in house; host or cells: E. coli Arctic express DE3 (pET28a)
T2 sequence (Q92608 1196-1622): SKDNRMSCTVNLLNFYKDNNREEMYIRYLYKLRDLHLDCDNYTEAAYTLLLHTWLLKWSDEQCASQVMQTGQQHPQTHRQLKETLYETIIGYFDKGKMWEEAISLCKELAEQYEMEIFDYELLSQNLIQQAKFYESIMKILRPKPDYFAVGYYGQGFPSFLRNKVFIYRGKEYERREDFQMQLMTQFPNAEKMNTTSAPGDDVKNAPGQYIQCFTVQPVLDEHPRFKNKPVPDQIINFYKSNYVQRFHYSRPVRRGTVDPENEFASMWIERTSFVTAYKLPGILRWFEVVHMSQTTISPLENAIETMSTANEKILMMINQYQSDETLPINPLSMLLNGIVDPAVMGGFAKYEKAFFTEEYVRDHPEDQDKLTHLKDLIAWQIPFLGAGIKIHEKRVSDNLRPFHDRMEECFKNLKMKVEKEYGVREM
Description: First, various steroid compounds prepared at 100 μg/ml by using 100% methanol were added in an amount of 50 μL to a 96-well plate for ELISA (trade name “Immulon 4HBX”, Thermo Scientific) and immobilized for 1 hour in a clean bench by air drying. Subsequently, 5% bovine serum albumin (BSA) diluted with TBS (20 mM Tris-HCl-150 mM NaCl, pH 7.5) was added thereto in an amount of 180 μL, the steroid compounds were incubated for 6 hours at 4° C., and the wells were blocked. Thereafter, each of the wells was rinsed three times with 180 μL of PBS-0.01% Tween-20. […] Then, each of the wells was rinsed three times with 180 μL of PBS-0.01% Tween-20. Subsequently, horseradish peroxidase (HRP)-labeled histidine probe (Thermo Scientific) diluted 5,000× was added in an amount of 100 μL to each well, and allowed to incubate for 1.5 hours at room temperature. Thereafter, each of the wells was rinsed three times with 180 μL of PBS-0.01% Tween-20, a 3,3′,5,5′-tetramethyl benzidine (TMB) solution (Thermo Scientific) as an HRP chromogenic substrate was added in an amount of 100 μL to each well so as to initiate a chromogenic reaction, and a stop solution (0.16 M sulfuric acid, Thermo Scientific) was added in an amount of 100 μL to each well so as to stop the reaction. Then, the absorbance at a wavelength of 450 nm was measured.

[3] = target: T3, DOCK2 (Homo sapiens, UniProt Q92608); assay: in-vitro GEF assay, Rac activation by DOCK2 (Experimental Example 1); assay type: biochemical
T3 construct: polypeptide fragments corresponding to a DHR-2 domain including the lobe B and the lobe C of DOCK2; Histidine-SUMO (N); made in house; host or cells: E. coli Arctic express DE3 (pET28a); Rac in E. coli BL21 DE3 (pGEX-6P-1)
T3 sequence (Q92608 1196-1622): T2 sequence (Q92608 1196-1622)
Description: as §1, §2, §3

[4] = test system: inflammatory cells infiltrating into the anterior chamber of eye; assay: UV-induced photokeratitis in Sult2B1b gene knockout mice, eye drops; assay type: in vivo, mouse; details: eye drops before and after UV irradiation
From the text: As a result of analyzing UV-induced photokeratitis in Sult2B1b gene heterozygous mice (+/−) and Sult2B1b gene knockout mice (−/−), atrophy of the corneal epithelial layer was comparably observed in both mice. Therefore, the eyeball section of each of the mice was subjected to hematoxylin-eosin (HE) staining and observed using an optical microscope. Thereafter, cholesterol 3-sulfate was applied to the eyes of the Sult2B1b gene knockout mouse (−/−) before and after UV irradiation, and the total number of inflammatory cells infiltrating the anterior chamber of eye was counted. As a control, mouse for whom only a vehicle was applied to its eyes was used.

## CC(C)CCC[C@@H](C)[C@H]1CC[C@H]2[C@@H]3CC=C4C[C@@H](OS(=O)(=O)O)CC[C@]4(C)[C@H]3CC[C@]12C [C3S, cholesterol 3-sulfate]
[1]
  IC50: > 300 µM
[2]
  binding to the protein composed of lobe B and lobe C of the DHR-2 domain of DOCK2 (ELISA, absorbance 450 nm): specifically binds
[3]
  IC50: 6.7 µM
[4]
  UV irradiation-induced infiltration of inflammatory cells into the anterior chamber of eye: inhibited
